“Also recorded” adds a separate entry of the source.
How the values were obtained:
MIN6 cells [1] = experiment: Immunoblotting of MIN6 whole cell lysates; format: cell-based, mouse
Description: FIGS. 2[…]-1) activates insulin expression and improves β cell function in MIN6 cells. (FIG. 2A) Dose-response relationship of MIN6 cells treated with 5-80 μM Isx for 24 h or DMSO (0.08%-similar to the highest concentration of Isx). Whole cell lysates (40 μg) were subjected to immunoblotting using antibodies against BETA2NeuroD1, MafA, PDX-1, pERK1/2 (pT183/[…]), acetylated histones […] and ACH3K9 and total histone H3. (FIG. 2B) Quantitative RT-PCR of murine insulin1 and insulin2 gene expression in MIN6 cells treated with Isx for 24 h as in FIG. 2A. […] (FIG. 2D) Insulin content measured by ELISA in MIN6 cells treated with Isx for 24 or 48 h. (FIG. 2E) GSIS induced by glucose, amino acids (AA) and Exendin-4 (Ex-4) singly or in combination in MIN6 cells pretreated with Isx for 48 h. FIGS. 4[…]-1) is a HAT activator. (FIG. 4A) Immunoblots of acetylated histones in MIN6 cells pretreated with the indicated inhibitors for 16 h and then treated with vehicle or Isx. (FIGS. 4B-C) HDAC (FIG. 4B) and HAT (FIG. 4C) activities in 50 μg of nuclear extract protein from MIN6 cells treated with Isx or DMSO for 24 h. Trichostatin A (TSA; 2 μM) was added at as a positive control. HeLa nuclear extract also was included as a positive control. […] Statistical analysis was performed using Student's t test as in FIGS. 1A-E. *P<0.05; **P<0.01. (FIG. 4G) Simplified view of the actions of Isx. FIG. 6. Time course of […]-1) treatment in MIN6 cells. Immunoblotting of whole cell extracts from MIN6 cells grown for 24 h in complete DMEM containing […] and treated with 20 μM Isx for from 15 min to 24 h. The control (0 min) was treated with DMSO for 24 h. MIN6 cells were cultured in DMEM (Gibco), containing 25 mM glucose, 10% fetal bovine serum, 10 mM Hepes pH 7.4, 10.2 mM L-glutamine, […] sodium pyruvate, 2.5 mM β-mercaptoethanol, 100 U/ml penicillin and 100 μg/ml streptomycin at 37° C. in 10% CO2. Human islets were obtained from the ICR Basic Science Islet Distribution and from the University of Alabama, Birmingham Islet Resource Facility and were cultured in RPMI 1640 with 11 mM glucose for up to 1 year. The medium was changed twice weekly and the islets were subcultured when they reached 90% confluence. For Isx treatments, cells were incubated in medium containing either Isx or the equivalent volume of DMSO vehicle (0.04%). To measure GSIS, cells were placed in Krebs-Ringer bicarbonate/Hepes containing 0.1% bovine serum albumin and 2 mM glucose for 2 h, and stimulated for 15 min with 20 mM glucose, a 1× amino-acid mixture (concentrations as in DMEM), or 50 nM Exendin-4.

CBP = biological target: T1, CBP (Homo sapiens, UniProt Q92793); experiment: HAT activity of HATs expressed in 293 cells; format: cell-based; settings: combination of ERK2 expression and Isx, 24 h (FIG. 8)
T1 construct: expressed in transfected cells; host or cells: HEK293
Description: (FIG. 8A) Combined effect of Isx treatment for 24 h and WT ERK2 (W) or kinase dead K52R ERK2 (R) on the HAT activities of p300, and (FIG. 8B) other HATs, CBP, PCAF and GCN5-L2, transfected in HEK293 cells.

HDAC = HDAC activity in nuclear extracts of treated MIN6 cells; format: cell-based, mouse; settings: 24 h treatment, TSA 2 μM positive control (FIG. 4B)
Description: The histone acetyl transferase and deacetylase activities were measured in 50 μg of nuclear protein using the HAT and HDAC activity colorimetric assay kits from Biovision Biotechnology according to manufacturer's recommendations.

[2] = tested on: rat insulin 1 promoter-luciferase reporter (pGL3-rIns -410, +1); experiment: Insulin promoter luciferase reporter assay in HEK293 cells; format: cell-based
Description: HEK 293 cells (0.15×10^6 cells) in triplicate were transfected with the pGL3-rIns reporter construct (0.1 μg/well) (Stratagene) and cotransfected with 0.5 μg/well of either empty vector (pcDNA3.1) or vectors encoding BETA2:myc, MafA:myc or PDX-1:myc using Lipofectamine 2000 (Invitrogen). After 24 h, cells were stimulated with 20 μM Isx or DMSO for another 24 h. Luciferase activity was measured using the dual luciferase reporter system (Promega) with Renilla Luciferase as an internal control.

MIN6 cells [3] = experiment: Insulin secretion (GSIS) and insulin content in MIN6 cells; format: cell-based, mouse
Description: MIN6 cells were cultured in DMEM (Gibco), containing 25 mM glucose, 10% fetal bovine serum, 10 mM Hepes pH 7.4, 10.2 mM L-glutamine, […] sodium pyruvate, 2.5 mM β-mercaptoethanol, 100 U/ml penicillin and 100 μg/ml streptomycin at 37° C. in 10% CO2. Human islets were obtained from the ICR Basic Science Islet Distribution and from the University of Alabama, Birmingham Islet Resource Facility and were cultured in RPMI 1640 with 11 mM glucose for up to 1 year. The medium was changed twice weekly and the islets were subcultured when they reached 90% confluence. For Isx treatments, cells were incubated in medium containing either Isx or the equivalent volume of DMSO vehicle (0.04%). To measure GSIS, cells were placed in Krebs-Ringer bicarbonate/Hepes containing 0.1% bovine serum albumin and 2 mM glucose for 2 h, and stimulated for 15 min with 20 mM glucose, a 1× amino-acid mixture (concentrations as in DMEM), or 50 nM Exendin-4. U0126 (10 μM), nifedipine (3 μM), BAPTA (10 μM), wortmanin (0.5 μM) or FK506 (0.1 μM) were added for 1-24 h as indicated.

[4] = 24 h exposure, 5-80 μM Isx (FIG. 2A)

T1 sequence (Q92793 whole entry): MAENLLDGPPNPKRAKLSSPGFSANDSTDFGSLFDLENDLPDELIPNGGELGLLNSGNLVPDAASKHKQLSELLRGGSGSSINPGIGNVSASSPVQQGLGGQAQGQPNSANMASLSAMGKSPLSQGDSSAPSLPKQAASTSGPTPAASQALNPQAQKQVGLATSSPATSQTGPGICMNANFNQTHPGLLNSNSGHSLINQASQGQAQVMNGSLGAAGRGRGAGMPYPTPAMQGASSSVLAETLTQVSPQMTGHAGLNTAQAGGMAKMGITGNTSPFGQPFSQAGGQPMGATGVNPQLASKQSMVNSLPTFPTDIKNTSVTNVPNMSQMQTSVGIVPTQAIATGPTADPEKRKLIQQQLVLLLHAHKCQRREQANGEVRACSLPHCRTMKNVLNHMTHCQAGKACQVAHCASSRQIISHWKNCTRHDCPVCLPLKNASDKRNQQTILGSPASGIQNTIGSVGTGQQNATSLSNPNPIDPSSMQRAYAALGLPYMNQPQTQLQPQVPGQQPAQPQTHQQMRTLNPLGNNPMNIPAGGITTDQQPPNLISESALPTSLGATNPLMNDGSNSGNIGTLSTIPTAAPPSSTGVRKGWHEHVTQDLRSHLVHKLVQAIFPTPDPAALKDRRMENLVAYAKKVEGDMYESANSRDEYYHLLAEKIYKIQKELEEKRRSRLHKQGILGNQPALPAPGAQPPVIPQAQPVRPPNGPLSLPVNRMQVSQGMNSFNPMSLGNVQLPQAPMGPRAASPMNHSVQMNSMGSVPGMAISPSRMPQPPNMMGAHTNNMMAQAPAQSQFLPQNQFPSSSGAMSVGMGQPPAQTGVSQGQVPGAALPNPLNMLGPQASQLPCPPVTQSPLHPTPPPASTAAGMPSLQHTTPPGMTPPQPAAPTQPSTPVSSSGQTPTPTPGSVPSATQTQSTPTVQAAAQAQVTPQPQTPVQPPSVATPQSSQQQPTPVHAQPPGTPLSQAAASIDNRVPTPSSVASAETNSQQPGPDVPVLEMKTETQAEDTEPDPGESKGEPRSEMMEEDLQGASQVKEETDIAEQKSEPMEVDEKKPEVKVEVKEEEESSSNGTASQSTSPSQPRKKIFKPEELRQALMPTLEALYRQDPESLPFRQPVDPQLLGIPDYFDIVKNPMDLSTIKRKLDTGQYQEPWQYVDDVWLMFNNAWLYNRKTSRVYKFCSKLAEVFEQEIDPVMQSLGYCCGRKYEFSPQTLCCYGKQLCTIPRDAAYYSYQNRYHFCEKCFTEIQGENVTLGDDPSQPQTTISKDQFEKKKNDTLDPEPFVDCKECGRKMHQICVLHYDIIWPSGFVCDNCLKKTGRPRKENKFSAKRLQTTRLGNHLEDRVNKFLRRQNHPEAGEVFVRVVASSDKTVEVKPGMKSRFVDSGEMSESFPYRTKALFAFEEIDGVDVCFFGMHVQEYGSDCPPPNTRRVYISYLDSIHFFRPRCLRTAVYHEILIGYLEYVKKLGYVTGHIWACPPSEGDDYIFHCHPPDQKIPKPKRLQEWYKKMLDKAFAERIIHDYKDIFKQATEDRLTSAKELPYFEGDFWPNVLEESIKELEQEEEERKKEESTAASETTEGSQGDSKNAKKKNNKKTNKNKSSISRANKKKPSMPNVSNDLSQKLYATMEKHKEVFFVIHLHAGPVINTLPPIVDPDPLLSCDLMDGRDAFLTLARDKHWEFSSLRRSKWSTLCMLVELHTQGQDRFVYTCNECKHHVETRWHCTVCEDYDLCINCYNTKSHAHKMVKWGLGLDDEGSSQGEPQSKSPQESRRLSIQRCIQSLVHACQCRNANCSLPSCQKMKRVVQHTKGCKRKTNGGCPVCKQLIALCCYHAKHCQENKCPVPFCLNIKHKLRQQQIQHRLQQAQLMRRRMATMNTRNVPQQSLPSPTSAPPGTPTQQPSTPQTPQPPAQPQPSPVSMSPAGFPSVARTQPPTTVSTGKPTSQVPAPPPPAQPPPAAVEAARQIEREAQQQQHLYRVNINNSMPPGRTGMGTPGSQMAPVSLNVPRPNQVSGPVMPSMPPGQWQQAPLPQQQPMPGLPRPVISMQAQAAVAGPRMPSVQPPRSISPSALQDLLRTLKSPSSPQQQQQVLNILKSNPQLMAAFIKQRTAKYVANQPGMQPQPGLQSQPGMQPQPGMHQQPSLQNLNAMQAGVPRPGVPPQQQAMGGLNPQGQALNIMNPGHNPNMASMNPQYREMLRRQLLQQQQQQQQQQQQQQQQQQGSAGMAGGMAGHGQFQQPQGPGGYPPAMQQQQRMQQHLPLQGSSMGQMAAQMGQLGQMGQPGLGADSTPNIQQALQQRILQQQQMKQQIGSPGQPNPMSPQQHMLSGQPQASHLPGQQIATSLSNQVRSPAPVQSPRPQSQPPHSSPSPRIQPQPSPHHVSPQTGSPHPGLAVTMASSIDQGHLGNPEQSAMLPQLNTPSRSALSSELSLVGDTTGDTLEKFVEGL

For `O=C(NC1CC1)c1cc(-c2cccs2)on1` [Isx, N-cyclopropyl-5-(thiophen-2-yl)isoxazole-3-carboxamide], the “ERK1/2 activation, time course” value (MIN6 cells [1]; 20 μM Isx, 15 min to 24 h (FIG. 6)) was “biphasic effect”, the MafA expression (MIN6 cells [1]; [4]) was “increased substantially” and the PDX-1 expression (MIN6 cells [1]; [4]) was “little if any change”. The “immunoreactive BETA2” value (MIN6 cells [1]; [4]) was “increased at all concentrations”, the “Acetylation of histone H3 and H4” value (MIN6 cells [1]; MIN6 cells treated with Isx (FIG. 2A, FIG. 4A)) was “increased; also recorded: marked effect” and the ERK1/2 phosphorylation (MIN6 cells [1]; following 24 h of exposure) was “detectable”. For the same compound, the “CBP HAT activity” value (CBP) was “increased”, the “HDAC activity in MIN6 cells” value (HDAC) was “not affected” and the “increase of the activity of PDX-1 (insulin gene reporter) by Isx” value ([2]; 20 μM Isx 24 h) was “two-fold or less”. For the same compound, the “Insulin gene reporter activity increase by either BETA2 or MafA in the presence of Isx” value ([2]; 20 μM Isx 24 h (FIG. 3A, FIG. 7)) was no less than 4 fold, the insulin content (MIN6 cells [3]; Isx 24 or 48 h (FIG. 2D)) was “relatively small increase” and the “Glucose-stimulated insulin secretion (GSIS) increase” value (MIN6 cells [3]; Isx pretreatment 48 h (FIG. 2C)) was roughly 4 fold. The “increase of stimulation of insulin secretion by glucose, amino acids and exendin-4, individually and in combination” value (MIN6 cells [3]; Isx pretreatment 48 h (FIG. 2E)) was 2 to 5 fold.
